Key:
[1] = target: T1, N-type calcium channel (NTCC) (Homo sapiens, UniProt Q00975); assay: FLIPR calcium mobilization assay for N-type calcium channel; type: cell-based; conditions: calcium mobilization in vitro assay; differentiated IMR32 cells, 5 μM nitrendipine, 90 mM KCl
T1 construct: host or cells: IMR32 cells, differentiated with dibutyryl cAMP and bromodeoxyuridine
Procedure: Cell maintenance and differentiation. Unless noted otherwise, cell culture reagents were purchased from Mediatech of Herndon, Md. IMR32 cells (American Type Culture Collection, ATCC, Manassas, Va.) were routinely cultured in growth medium consisting of minimum essential medium containing 10% fetal bovine serum (FBS, Hyclone, Logan, Utah), 100 U/mL penicillin, 100 μg/mL streptomycin, 2 mM L-glutamine, 1 mM sodium pyruvate, and 1×MEM non-essential amino acids. 80-90% confluent flasks of cells were differentiated using the following differentiation medium: Growth medium plus 1 mM dibutyryl cyclic AMP (Sigma, St. Louis, Mo.), and 2.5 μM bromodeoxyuridine (Sigma). Cells were differentiated for 8 days by replacing differentiation medium every 2-3 days.
FLIPR Calcium Mobilization Assay for N-type Calcium Channel. One day prior to performing this assay, differentiated IMR32 cells were treated with 1× CellStripper, and seeded on poly-D-lysine-coated 96-well clear-bottom black plates (Becton Dickinson, Franklin Lakes, N.J.) at 200,000 cells/well. […] Plates were then transferred to a Fluorimetric Imaging Plate Reader (FLIPR^96, Molecular Devices, Inc., Sunnyvale, Calif.) for assay. The FLIPR measured basal Fluo-4 fluorescence for 315 seconds (i.e., 5 minutes and 15 seconds), then added 0.1 mL KCl agonist dissolved in IMR32 buffer and measured fluorescence for another 45 seconds. Final test compound concentrations on the cells after FLIPR read ranged from about 846 pM to about 17 μM, final nitrendipine concentration was 5 μM, and final KCl concentration was 90 mM. Data were collected over the entire time course and analyzed using Excel, Graph Pad Prism (version 3.02, Graph Pad, San Diego, Calif.), or an in-house non-linear regression analysis software.

[2] = target: T2, L-type calcium channel (LTCC) (Rattus norvegicus, UniProt P22002); assay: FLIPR calcium mobilization assay for L-type calcium channel; type: cell-based; conditions: calcium mobilization in vitro assay; HEK293 cells expressing recombinant rat LTCC subunits (α1c, α2δ, β1), 90 mM KCl
T2 construct: The 6.5 kb cDNA encoding the L-type calcium channel α1c subunit was cloned by PCR amplification from rat heart cDNA; expressed in transfected cells
T2 sequence (P22002 whole entry): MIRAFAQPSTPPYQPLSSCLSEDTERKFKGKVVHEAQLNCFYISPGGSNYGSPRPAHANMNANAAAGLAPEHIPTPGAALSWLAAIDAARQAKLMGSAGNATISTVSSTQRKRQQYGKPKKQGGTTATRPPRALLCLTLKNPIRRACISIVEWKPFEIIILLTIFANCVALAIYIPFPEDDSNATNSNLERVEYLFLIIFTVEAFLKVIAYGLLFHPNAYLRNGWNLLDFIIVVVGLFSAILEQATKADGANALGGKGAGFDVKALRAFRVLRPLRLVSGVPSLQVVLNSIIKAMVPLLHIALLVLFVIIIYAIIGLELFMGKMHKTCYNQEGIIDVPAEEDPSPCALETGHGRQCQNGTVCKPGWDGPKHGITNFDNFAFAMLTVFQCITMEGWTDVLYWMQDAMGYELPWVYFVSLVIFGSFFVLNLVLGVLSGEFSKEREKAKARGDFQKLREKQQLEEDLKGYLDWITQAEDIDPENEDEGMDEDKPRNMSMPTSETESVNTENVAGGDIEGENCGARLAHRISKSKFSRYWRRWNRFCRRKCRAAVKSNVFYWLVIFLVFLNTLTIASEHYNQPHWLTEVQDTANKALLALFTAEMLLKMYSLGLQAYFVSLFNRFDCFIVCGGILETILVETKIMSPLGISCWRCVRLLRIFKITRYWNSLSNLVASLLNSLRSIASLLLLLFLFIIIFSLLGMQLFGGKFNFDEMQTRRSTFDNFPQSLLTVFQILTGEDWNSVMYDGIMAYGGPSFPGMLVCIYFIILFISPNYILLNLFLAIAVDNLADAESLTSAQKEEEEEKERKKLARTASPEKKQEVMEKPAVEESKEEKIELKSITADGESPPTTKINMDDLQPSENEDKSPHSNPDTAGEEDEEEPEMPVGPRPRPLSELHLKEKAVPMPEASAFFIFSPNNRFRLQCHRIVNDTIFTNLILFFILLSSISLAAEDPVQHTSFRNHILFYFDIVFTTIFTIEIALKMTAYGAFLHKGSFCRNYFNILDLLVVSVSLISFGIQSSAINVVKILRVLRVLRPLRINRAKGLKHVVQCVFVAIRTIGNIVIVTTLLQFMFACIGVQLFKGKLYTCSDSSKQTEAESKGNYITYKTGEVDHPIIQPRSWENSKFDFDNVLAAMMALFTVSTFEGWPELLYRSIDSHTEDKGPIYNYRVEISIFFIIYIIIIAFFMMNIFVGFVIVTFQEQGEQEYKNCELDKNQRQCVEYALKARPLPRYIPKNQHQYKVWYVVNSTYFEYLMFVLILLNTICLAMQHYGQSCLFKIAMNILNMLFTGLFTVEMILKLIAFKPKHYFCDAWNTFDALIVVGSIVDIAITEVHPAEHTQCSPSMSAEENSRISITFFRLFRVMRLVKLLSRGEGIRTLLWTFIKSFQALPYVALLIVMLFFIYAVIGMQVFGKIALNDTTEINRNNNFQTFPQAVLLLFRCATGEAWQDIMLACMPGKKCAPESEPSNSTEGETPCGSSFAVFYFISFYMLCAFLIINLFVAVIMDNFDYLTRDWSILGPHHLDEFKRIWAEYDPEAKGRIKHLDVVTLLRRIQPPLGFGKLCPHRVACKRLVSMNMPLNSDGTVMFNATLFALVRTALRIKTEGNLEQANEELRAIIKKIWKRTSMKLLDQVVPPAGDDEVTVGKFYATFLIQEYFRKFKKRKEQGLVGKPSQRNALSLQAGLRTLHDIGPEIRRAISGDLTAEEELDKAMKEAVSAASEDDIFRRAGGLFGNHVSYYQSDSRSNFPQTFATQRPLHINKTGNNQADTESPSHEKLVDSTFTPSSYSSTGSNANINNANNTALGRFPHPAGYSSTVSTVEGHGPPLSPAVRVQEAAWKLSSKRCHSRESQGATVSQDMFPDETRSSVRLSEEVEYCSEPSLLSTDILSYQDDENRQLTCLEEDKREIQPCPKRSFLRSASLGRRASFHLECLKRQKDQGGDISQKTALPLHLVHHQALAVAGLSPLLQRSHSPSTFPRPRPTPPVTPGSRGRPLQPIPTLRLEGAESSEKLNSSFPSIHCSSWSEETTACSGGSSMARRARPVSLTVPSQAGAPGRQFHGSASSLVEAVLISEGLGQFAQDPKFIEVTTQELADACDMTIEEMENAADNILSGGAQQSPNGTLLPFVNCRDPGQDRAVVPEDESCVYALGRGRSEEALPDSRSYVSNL
Procedure: Recombinant human embryonal kidney cells (HEK293, ATCC) stably transfected with either N-type calcium channel (NTCC) subunits (α1b, α2δ, and (β3) or L-type calcium channel (LTCC) subunits (α1c, α2δ, and β1) were routinely cultured in growth medium consisting of Dulbecco's Modified Eagles Medium containing 10% FBS, 100 U/mL penicillin, 100 μg/mL streptomycin, 4 mM L-glutamine, 500 μg/mL geneticin (G418), 20 μg/mL Blasticidin S (InVivogen, San Diego, Calif.) and 500 μg/mL zeocin (InVivogen).
FLIPR Calcium Mobilization Assay for L-type Calcium Channel. One day prior to performing this assay, HEK293 cells stably expressing recombinant rat L-type calcium channel (LTCC) subunits (α1c, α2δ, and β1) were trypsinized, then seeded on poly-D-lysine-coated 96-well clear-bottom black plates (Becton Dickinson, Franklin Lakes, N.J.) at 75,000 cells/well. On the day of the assay, the plates were washed with LTCC wash buffer (127 mM NaCl, 2 mM MgCl2, 700 μM NaH2PO4, 5 mM CaCl2, 5 mM NaHCO3, 8 mM HEPES, 10 mM glucose, pH 7.4), then loaded with 0.1 mL of LTCC wash buffer containing Fluo-4 (3 μM final concentration, Molecular Probes, Eugene, Oreg.). After 1 hour, the cells were washed with 0.1 mL LTCC wash buffer and resuspended in 0.05 mL LTCC assay buffer (same composition as LTCC wash buffer). Plates were then transferred to a FLIPR^96 for assay. The FLIPR measured basal Fluo-4 fluorescence for 15 seconds, then added 0.05 mL of each compound tested diluted in LTCC assay buffer at final concentrations ranging from about 846 pM to about 17 μM. Fluo-4 fluorescence was then measured for 5 minutes. 0.1 mL KCl agonist dissolved in LTCC assay buffer was then added to the cells to produce a final concentration of 90 mM KCl, and fluorescence was measured for another 45 seconds. Data were collected over the entire time course and analyzed using Excel, Graph Pad Prism, or an in-house regression analysis software.

IC50 [1]	IC50 [2]	SMILES
180 nM	> 20000 nM	C/C(=N\OC1CCN(S(=O)(=O)c2ccc(OC(F)(F)F)cc2)CC1)c1cccc(C#N)c1 [Example 4, (E)-3-(1-(1-(4-(Trifluoromethoxy)phenylsulfonyl)piperidin-4-yloxyimino)ethyl)benzonitrile]
200 nM	> 20000 nM	N#Cc1cccc(C(=NOC2CCN(S(=O)(=O)c3ccc(OC(F)(F)F)cc3)CC2)C2CC2)c1 (racemic) [Example 2, 3-(Cyclopropyl(1-(4-(trifluoromethoxy)phenylsulfonyl)piperidin-4-yloxyimino)methyl)benzonitrile]
100 nM	> 20000 nM	O=S(=O)(c1ccc(OC(F)(F)F)cc1)N1CCC(ON=C(c2ccc(F)cc2)c2ccc(F)cc2)CC1 [Example 3, Bis(4-fluorophenyl)methanone O-1-(4-(trifluoromethoxy)phenylsulfonyl)piperidin-4-yl oxime]
